Patent US8952024B2, “Herbicidal pyrimidone derivatives” (E I du Pont de Nemours and Company, priority 2009, dated 2015)

Experiments:
Assay in all cases: Test B pre-/postemergence plant response
Format in all cases: in vivo
[1] = test system: velvetleaf (Abutilon theophrasti)
In short: (§1)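 Test compounds, formulated in a non-phytotoxic solvent mixture with surfactant, are applied to the soil surface (loam and sand blend) right after seeding, or sprayed over plants at the 1- to 4-leaf stage grown in peat moss/vermiculite medium. After 13 to 15 days under glasshouse conditions, each species is scored visually from 0 (no effect) to 100 (complete control) against controls.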

[2] = test system: yellow nutsedge (Cyperus esculentus)
In short: as §1

[3] = test system: corn (Zea mays)
In short: as §1

[4] = test system: pigweed (Amaranthus retroflexus)
In short: as §1

[5] = test system: soybean (Glycine max)
In short: as §1

[6] = test system: Surinam grass (Brachiaria decumbens)
In short: as §1

[7] = test system: johnsongrass (Sorghum halepense)
In short: as §1

[8] = test system: wheat (Triticum aestivum)
In short: as §1

[9] = test system: ragweed (common ragweed, Ambrosia elatior); conditions: Preemergence
In short: as §1

[10] = test system: large crabgrass (Digitaria sanguinalis)
In short: as §1

[11] = test system: kochia (Kochia scoparia)
In short: as §1

[12] = test system: downy bromegrass (Bromus tectorum)
In short: as §1

[13] = test system: Italian ryegrass (Lolium multiflorum)
In short: as §1

[14] = test system: goosegrass (Eleusine indica)
In short: as §1

[15] = test system: lambsquarters (Chenopodium album)
In short: as §1

[16] = test system: blackgrass (Alopecurus myosuroides)
In short: as §1

[17] = test system: woolly cupgrass (Eriochloa villosa)
In short: as §1

[18] = test system: wild oat (Avena fatua)
In short: as §1

[19] = Postemergence, 31 g ai/ha, 0 to 100 scale (0 no effect, 100 complete control)
[20] = Postemergence, 250 g ai/ha, scale 0 to 100 (0 no effect, 100 complete control), 13 to 15 days
[21] = Postemergence, 62 g ai/ha, scale 0 to 100 (0 no effect, 100 complete control)
[22] = Preemergence, 31 g ai/ha, scale 0 to 100 (0 no effect, 100 complete control)
[23] = Preemergence, 62 g ai/ha, scale 0 to 100, 0 no effect, 100 complete control
[24] = Preemergence, 125 g ai/ha, scale 0 to 100, 0 no effect, 100 complete control
[25] = Preemergence, 250 g ai/ha, 0 to 100 scale
[26] = Postemergence, 125 g ai/ha, scale 0 to 100 (0 no effect, 100 complete control)

CCCCn1c(C2CC2)ncc(C(=O)C2=C(O)CCCC2=O)c1=O [Compound 193]
Plant response rating, Velvetleaf [1, 19]: 90 | Plant response rating, Velvetleaf [1, 20]: 100 | Plant response rating, Velvetleaf [1, 21]: 100 | Plant response rating, Velvetleaf [1, 22]: 85 | Plant response rating, Velvetleaf [1, 23]: 100 | Plant response rating, Velvetleaf [1, 24]: 100 | Velvetleaf plant response rating [1, 25]: 100 | Plant response rating, Nutsedge, Yellow [2, 19]: 60 | Plant response rating, Nutsedge, Yellow [2, 26]: 75 | Plant response rating, Nutsedge, Yellow [2, 20]: 75 | Plant response rating, Nutsedge, Yellow [2, 21]: 65 | Plant response rating, Nutsedge, Yellow [2, 22]: 10 | Plant response rating, Nutsedge, Yellow [2, 23]: 65 | Plant response rating, Nutsedge, Yellow [2, 24]: 70 | Nutsedge, Yellow plant response rating [2, 25]: 90 | Plant response rating, Corn [3, 19]: 0 | Plant response rating, Corn [3, 26]: 40 | Plant response rating, Corn [3, 20]: 60 | Plant response rating, Corn [3, 21]: 15 | Plant response rating, Corn [3, 22]: 0 | Plant response rating, Corn [3, 23]: 0 | Plant response rating, Corn [3, 24]: 5 | Corn plant response rating [3, 25]: 5 | Plant response rating, Pigweed [4, 19]: 90 | Plant response rating, Pigweed [4, 20]: 100 | Plant response rating, Pigweed [4, 21]: 95 | Plant response rating, Pigweed [4, 22]: 98 | Plant response rating, Pigweed [4, 23]: 100 | Plant response rating, Pigweed [4, 24]: 100 | Pigweed plant response rating [4, 25]: 100 | Plant response rating, Soybean [5, 19]: 80 | Plant response rating, Soybean [5, 20]: 100 | Plant response rating, Soybean [5, 21]: 98 | Plant response rating, Soybean [5, 22]: 40 | Plant response rating, Soybean [5, 23]: 60 | Plant response rating, Soybean [5, 24]: 60 | Soybean plant response rating [5, 25]: 80 | Plant response rating, Surinam Grass [6, 19]: 65 | Plant response rating, Surinam Grass [6, 20]: 95 | Plant response rating, Surinam Grass [6, 21]: 65 | Plant response rating, Surinam Grass [6, 22]: 0 | Plant response rating, Surinam Grass [6, 23]: 15 | Plant response rating, Surinam Grass [6, 24]: 30 | Surinam Grass plant response rating [6, 25]: 45 | Plant response rating, Johnsongrass [7, 19]: 50 | Plant response rating, Johnsongrass [7, 26]: 70 | Plant response rating, Johnsongrass [7, 20]: 80 | Plant response rating, Johnsongrass [7, 21]: 65 | Plant response rating, Johnsongrass [7, 22]: 0 | Plant response rating, Johnsongrass [7, 23]: 0 | Plant response rating, Johnsongrass [7, 24]: 15 | Johnsongrass plant response rating [7, 25]: 60 | Plant response rating, Wheat [8, 19]: 30 | Plant response rating, Wheat [8, 20]: 60 | Plant response rating, Wheat [8, 21]: 35 | Plant response rating, Wheat [8, 22]: 0 | Plant response rating, Wheat [8, 23]: 0 | Plant response rating, Wheat [8, 24]: 10 | Wheat plant response rating [8, 25]: 25 | Plant response rating, Ragweed ([9]; 31 g ai/ha, scale 0 to 100 (0 no effect, 100 complete control)): 100 | Plant response rating, Ragweed ([9]; 62 g ai/ha, scale 0 to 100, 0 no effect, 100 complete control): 100 | Plant response rating, Ragweed ([9]; 125 g ai/ha, scale 0 to 100, 0 no effect, 100 complete control): 100 | Ragweed plant response rating ([9]; 250 g ai/ha, 0 to 100 scale): 100 | Plant response rating, Crabgrass, Large [10, 19]: 75 | Plant response rating, Crabgrass, Large [10, 26]: 98 | Plant response rating, Crabgrass, Large [10, 20]: 100 | Plant response rating, Crabgrass, Large [10, 21]: 90 | Plant response rating, Crabgrass, Large [10, 22]: 100 | Plant response rating, Crabgrass, Large [10, 23]: 100 | Plant response rating, Crabgrass, Large [10, 24]: 100 | Crabgrass, Large plant response rating [10, 25]: 100 | Plant response rating, Kochia [11, 19]: 20 | Plant response rating, Kochia [11, 26]: 100 | Plant response rating, Kochia [11, 20]: 100 | Plant response rating, Kochia [11, 21]: 80 | Plant response rating, Kochia [11, 22]: 20 | Plant response rating, Kochia [11, 23]: 70 | Plant response rating, Kochia [11, 24]: 80 | Kochia plant response rating [11, 25]: 90 | Plant response rating, Bromegrass, Downy [12, 19]: 10 | Plant response rating, Bromegrass, Downy [12, 26]: 40 | Plant response rating, Bromegrass, Downy [12, 20]: 85 | Plant response rating, Bromegrass, Downy [12, 21]: 30 | Plant response rating, Bromegrass, Downy [12, 22]: 0 | Plant response rating, Bromegrass, Downy [12, 23]: 5 | Plant response rating, Bromegrass, Downy [12, 24]: 5 | Bromegrass, Downy plant response rating [12, 25]: 50 | Plant response rating, Ryegrass, Italian [13, 19]: 5 | Plant response rating, Ryegrass, Italian [13, 20]: 45 | Plant response rating, Ryegrass, Italian [13, 21]: 40 | Plant response rating, Ryegrass, Italian [13, 22]: 0 | Plant response rating, Ryegrass, Italian [13, 23]: 0 | Plant response rating, Ryegrass, Italian [13, 24]: 25 | Ryegrass, Italian plant response rating [13, 25]: 45 | Plant response rating, Goosegrass [14, 19]: 85 | Plant response rating, Goosegrass [14, 26]: 98 | Plant response rating, Goosegrass [14, 20]: 100 | Plant response rating, Goosegrass [14, 21]: 95 | Plant response rating, Goosegrass [14, 22]: 98 | Plant response rating, Goosegrass [14, 23]: 100 | Plant response rating, Goosegrass [14, 24]: 100 | Goosegrass plant response rating [14, 25]: 100 | Plant response rating, Lambsquarters [15, 19]: 98 | Plant response rating, Lambsquarters [15, 26]: 98 | Plant response rating, Lambsquarters [15, 20]: 100 | Plant response rating, Lambsquarters [15, 21]: 98 | Plant response rating, Lambsquarters [15, 22]: 100 | Plant response rating, Lambsquarters [15, 23]: 100 | Plant response rating, Lambsquarters [15, 24]: 100 | Lambsquarters plant response rating [15, 25]: 100 | Plant response rating, Blackgrass [16, 19]: 10 | Plant response rating, Blackgrass [16, 26]: 40 | Plant response rating, Blackgrass [16, 20]: 60 | Plant response rating, Blackgrass [16, 21]: 15 | Plant response rating, Blackgrass [16, 22]: 0 | Plant response rating, Blackgrass [16, 23]: 0 | Plant response rating, Blackgrass [16, 24]: 30 | Blackgrass plant response rating [16, 25]: 70 | Plant response rating, Cupgrass, Woolly [17, 19]: 75 | Plant response rating, Cupgrass, Woolly [17, 26]: 95 | Plant response rating, Cupgrass, Woolly [17, 20]: 98 | Plant response rating, Cupgrass, Woolly [17, 21]: 85 | Plant response rating, Cupgrass, Woolly [17, 22]: 10 | Plant response rating, Cupgrass, Woolly [17, 23]: 70 | Plant response rating, Cupgrass, Woolly [17, 24]: 80 | Cupgrass, Woolly plant response rating [17, 25]: 90 | Plant response rating, Oat, Wild [18, 19]: 0 | Plant response rating, Oat, Wild [18, 20]: 75 | Plant response rating, Oat, Wild [18, 21]: 50 | Plant response rating, Oat, Wild [18, 22]: 5 | Plant response rating, Oat, Wild [18, 23]: 5 | Plant response rating, Oat, Wild [18, 24]: 30 | Oat, Wild plant response rating [18, 25]: 60
